Results taken from patent US20120028917A1, “Use Of N-(4-((3-(2-Amino-4-Pyrimidinyl)-2-Pyridinyl)Oxy)Phenyl)-4-(4-Methyl-2-Thienyl)-1-Phthalazinamine In The Treatment Of Antimitotic Agent Resistant Cancer” (Amgen Inc., priority 2009, published 2012).
Values joined by “and” are separate entries in the source; they are usually repeats but may differ in a detail not shown here. Equal values may be shown once.

How the values were obtained:
MES-SA xenograft = experiment: Xenograft tumor growth inhibition (Example 3); type: in vivo, athymic nude mice; settings: Uterine, oral BID, best of intermittent or continuous dose schedule
Method: (§1) To investigate whether AMG 900-induced suppression of aurora kinase activity inhibits cell proliferation, the antiproliferative efficacy of AMG 900 was evaluated in-vivo in multiple human cancer xenograft models, including breast, colon, leukemia, lung, pancreatic, and uterine cancer models, grown in athymic nude mice. Mice were administered AMG 900 orally at 3.75, 7.5, or 15 mg/kg BID for 2 consecutive days per week or 3 mg/kg BID everyday for the duration of the study beginning when tumors were established. The reagents, solutions, equipment, formulation of AMG 900, tumor volume measurements and calculations were generally as described in Example 4 below.

HL60 xenograft = experiment: Xenograft tumor growth inhibition (Example 3); type: in vivo, athymic nude mice; settings: HL60, Leukemia; oral BID, best of intermittent or continuous dose schedule
Method: as §1

MiaPaCa2 xenograft = experiment: Xenograft tumor growth inhibition (Example 3); type: in vivo, athymic nude mice; settings: MiaPaCa2, Pancreas; oral BID, best of intermittent or continuous dose schedule
Method: as §1

MDA-MB-231 xenograft = experiment: Xenograft tumor growth inhibition (Example 3); type: in vivo, athymic nude mice; settings: MDA-MB-231, Breast; oral BID, best of intermittent or continuous dose schedule
Method: as §1

HCT 116 xenograft = experiment: Xenograft tumor growth inhibition (Example 3); type: in vivo, athymic nude mice; settings: HCT 116, Colon; oral BID, best of intermittent or continuous dose schedule
Method: as §1

Colo 205 xenograft = experiment: Xenograft tumor growth inhibition (Example 3); type: in vivo, athymic nude mice; settings: Colo 205, Colon; oral BID, best of intermittent or continuous dose schedule
Method: as §1

NCI-H460 xenograft = experiment: Xenograft tumor growth inhibition (Example 3); type: in vivo, athymic nude mice; settings: NCI-H460, Lung; oral BID, best of intermittent or continuous dose schedule
Method: as §1

[1] = system: NCI-H460-taxol resistant tumor xenografts; experiment: Growth of established NCI-H460-taxol resistant xenografts (Example 4); type: in vivo, athymic nude mice
Method: To investigate whether AMG 900-induced suppression of aurora kinase activity inhibits cell proliferation, the antitumor efficacy of AMG 900 was evaluated in vivo against NCI-H460-taxol resistant tumor xenografts in athymic nude mice. Mice were dosed PO with AMG 900 (BID) either intermittently or continuously. Mice were dosed IP with paclitaxel (taxol) 5 days/week. An internal Amgen compound was used as a positive control in this study (data not shown). Tumors were measured twice per week. Treatment began on day 12 when the tumors were established. All groups were provided nutritional supplements on a daily basis throughout the study to maintain body weight. AMG 900 (free base) was formulated into suspension to concentrations of 1.5 and 0.3 mg/mL. […] The duration of the dosing phase for AMG 900 was three weeks, and two weeks for the taxol group. The tumors were measured with a digital caliper and the mice were weighed twice per week. Tumor volumes were calculated as follows: […] Tumor inhibition was calculated as follows: […] FIG. 5 illustrates the effects of AMG 900 and Taxol treatment on the growth of established H460-taxol resistant tumors. […] Tumors were measured twice per week. Treatment began 12 days after tumor implantation (arrow) when tumors were approximately 170 mm^3. Mice were dosed PO or IP once or twice daily for 3 weeks. Data represent mean ±SE for each group. *P values (not shown) correspond to statistical difference between groups treated with vehicle and AMG 900 or Taxol analyzed with repeated measure Sheffe's ANOVA over time using […]. The scheduled days listed in the legend represent days/ week. All groups were provided nutritional supplements throughout the study.

RPMI-8226 = experiment: Multiparameter cell cycle DNA content assay (flow cytometry); type: cell-based; settings: Homo sapiens; RPMI-8226, Multiple Myeloma; 48 hours without compound withdrawal; read-out: EC50 (+4N DNA content endpoint)
Method: Tumor cells were seeded in a 300 μL deep 96-well plate in 150 μL of appropriate complete media at a density of 100,000 cells/well. The cells were treated with AMG 900 (10-point dose range 0.156 to 0.0003 μM) with a final DMSO concentration of 0.2% in media. Two hours prior to harvest time, the cells were pulsed with BrdU at the final concentration of 1:100 in media. After 48 hours, 100 μL of media was removed from each well with a multi-well pipetter. Then the cells were transferred to PCR tube strips in 200 μL of media. The cells were centrifuged at 2000 rpm at 18° C. for 4 minutes and the supernatant was aspirated. The cells were then fixed in 200 μL of ice cold 90% methanol and stored at −20° C. for at least 24 hours before antibody and DNA staining. Fixed cells were centrifuged at 2000 rpm for 4 minutes to remove 90% methanol. Cells were washed with 200 μL of wash buffer and then treated with 100 μL acid buffer at room temperature for 1 hour in the dark. Cells were washed twice with 200 μL wash buffer (until pH was 7.0, confirmed with pH paper). Cells were incubated with an anti-BrdU-Alexa 647 (3 μg/mL) and anti-Caspase 3-FITC (20 μ/well) antibody cocktail in wash buffer for 2 hours at room temperature in the dark. Stained cells were centrifuged and washed with 200 μL of wash buffer. Cells were counterstained with 200 μL of propidium iodide (PI) overnight at 4° C. in the dark. Data was acquired and analyzed by flow cytometer (LSRII). A threshold gate was applied according to DNA content, BrdU, and Caspase-3 positive/negative populations based on DMSO control and low/high drug-treated groups. The data was represented as a percentage of SubG1 DNA content, 4N+ DNA content, BrdU, and Caspase-3 cleavage positive populations. The concentration-response curves and EC50 values were calculated using a 4-parameter equation.

[2] = 3mpk PO BID 7 days/week × 3 wks
[3] = 15mpk PO BID 2 days ON/5 day OFF/week × 3 wks

SMILES: Cc1csc(-c2nnc(Nc3ccc(Oc4ncccc4-c4ccnc(N)n4)cc3)c3ccccc23)c1 [AMG 900, N-(4-((3-(2-amino-4-pyrimidinyl)-2-pyridinyl)oxy)phenyl)-4-(4-methyl-2-thienyl)-1-phthalazinamine]
- % TGI (tumor growth inhibition) (MES-SA xenograft): 86%
- % TGI (tumor growth inhibition) (HL60 xenograft): 68%
- % TGI (tumor growth inhibition) (MiaPaCa2 xenograft): 62%
- % TGI (tumor growth inhibition) (MDA-MB-231 xenograft): 82%
- % TGI (tumor growth inhibition) (HCT 116 xenograft): 83%
- % TGI (tumor growth inhibition) (Colo 205 xenograft): 58%
- % TGI (tumor growth inhibition) (NCI-H460 xenograft): 85%
- % Inhibition (tumor growth) [1, 2]: 60% and 60.4%
- Tumor volume, Mean [1, 2]: 771 mm^3
- Tumor volume, Median [1, 2]: 715.6 mm^3
- % Inhibition (tumor growth) [1, 3]: 66% and 65.7%
- Tumor volume, Mean [1, 3]: 689 mm^3
- Tumor volume, Median [1, 3]: 612.5 mm^3
- EC50 (RPMI-8226): 2 nM
